This is an account of results in patent publication US11708562B2, “Differentiation of human embryonic stem cells” (Janssen Biotech, Inc., priority 2006, dated 2023).

The test system of test [1] is human embryonic stem cell line H1 at passage 55. The test can be described thus: Definitive endoderm on human serum coated plates (real-time PCR). It is filed as cell-based. As for the experimental part:
Cultures of the human embryonic stem cell line H1 at passage 55 were grown and differentiated on human serum (Sigma, # H1388, MO) coated plates. 0.5 ml of human serum was added to each well of 6 well tissue culture treated dish, incubated for 1 hr at room temperature, and aspirated before adding human embryonic stem cells. […] These findings parallel our findings for human embryonic stem cells cultured on […]™ or human fibronectin coated plates.

Test [2] concerns H9P46-P48 embryonic stem cells. As to the kind of experiment: Definitive endoderm on […]: effect of GSK-3B inhibitor (FACS CXCR4, PCR). As to conditions: 20 ng/ml of Wnt-3a or 100-1000 nM GSK-3B inhibitor. The test is classed as cell-based, human. As for the experimental part:
In order to confirm that the effect of Wnt-3a was through the Wnt pathway, a GSK-3 inhibitor was used to activate the downstream targets of Wnt, such as beta catenin. […] FIG. 29A depicts the expression of CXCR4 by FACS at day 5 in the absence of Wnt-3a or GSK-3B inhibitor, b)+20 ng/ml Wnt-3a, c)+1000 nM GSK-3B inhibitor IX, d)+500 nM GSK-3B inhibitor IX, e)+100 nM GSK-3B inhibitor IX, f)+10 nM GSK-3B inhibitor IX, g)+100 nM GSK-3B inhibitor IX for days 1-2, and h)+10 nM GSK-3B inhibitor IX for days 1-2.

In test [3] the test system is H9P53 embryonic stem cells. The test can be described thus: Definitive endoderm on […]: combination of Wnt-3a, GSK-3B inhibitor, BMP-4. It is filed as cell-based, human. The text has this: Results are expressed as fold increase over untreated cells. […] Results are expressed as fold increase over untreated cells.
In test [4] the test system is human embryonic stem cell line H9. The test can be described thus: Formation of pancreatic endocrine cells: γ-secretase inhibitor L-685,458 (PCR). It is filed as cell-based. The settings on record: L-685,458 at 10 μM for three days. The method, then: After this time interval, the cells were then treated for six days with combinations of retinoic acid and FGF as outlined in Example 2, then the culture medium was removed and replaced with medium comprising DMEM/F12 with 2% FBS, containing the γ-secretase inhibitors L-685,458 at 10 μM for three days.

Test [5] shares this test system. As to the kind of experiment: Formation of pancreatic endoderm: retinoic acid and bFGF after activin A (PCR, immunocytochemistry). It is filed as cell-based. The source says: Final data were expressed relative to a calibrator sample.
Test [6] has as its system H7P44 and H9P46 embryonic stem cells. As to the kind of experiment: Definitive endoderm on […]: role of Wnt ligands (FACS CXCR4, real-time PCR). It is filed as cell-based, human. As to conditions: H7 and H9; low serum+AA+/-Wnt ligands. As for the experimental part:
In some of the cultures 20 ng/ml Wnt-3a (Catalog #1324-WN-002, R&D Systems, MN), 20 ng/ml Wnt-5a (Catalog #654-WN-010, R&D Systems, MN), 25 ng/ml Wnt-7a (Catalog #3008-WN-025, R&D Systems, MN), or 25 ng/ml Wnt-5b (Catalog #3006-WN-025, R&D Systems, MN) was added throughout the five day treatment. FIGS. 24A and 24B depicts phase contrast images of H9P46 definitive endoderm culture in the presence of high concentration of (a) AA or (b) AA+20 ng/ml Wnt-3a. FIGS. 25A, 25B, 25C and 25D depicts the expression of CXCR4 by FACS at day 5 for H7P44, and H9P46 lines cultured on […]™ (1:30 dilution) and exposed to the DE protocol+Wnt-3a (FIGS. 25B and 25D) and -Wnt-3a (FIGS. 25A and C).

Test [7] relates to human embryonic stem cell line H9. As to the kind of experiment: Derivation of hepatocytes from human embryonic stem cells (PCR of AFP, albumin). It is filed as cell-based. The settings on record: five days after 7 days activin A.
Text: After this time, the cells were harvested, and samples of mRNA were collected for analysis.

As to `O=C1Nc2cc(Br)ccc2/C1=C1/Nc2ccccc2/C1=N\O` [GSK-3B inhibitor IX, reference compound], the “expression of definitive endoderm markers compared to activin A only” value in test [1] is “Robust expression”. In test [2], the “number of CXCR4 positive cells (FACS)” value is given as “significantly increased”. In test [3] (Wnt-3A plus GSK inhibitor in the presence of activin A), the “definitive endoderm markers, combination versus each agent by itself” value is “do not lead to significant upregulation”. Consider `CC(C)C[C@H](NC(=O)[C@H](Cc1ccccc1)C[C@@H](O)[C@H](Cc1ccccc1)NC(=O)OC(C)(C)C)C(=O)N[C@@H](Cc1ccccc1)C(N)=O` [L-685,458], for which the “expression of Ngn3 relative to activin A alone or retinoic acid with FGFs” value in test [4] is “approximately 50 fold”. For `CC1=C(/C=C/C(C)=C/C=C/C(C)=C/C(=O)O)C(C)(C)CCC1` [retinoic acid, all-trans retinoic acid], the “expression of GLUT-2 and PTF1a” value in test [5] (1 μM retinoic acid and 50 ng/ml bFGF, absence of activin A) was “largest increase”. In test [5] (three days activin A, then 5 days retinoic acid and 50 ng/ml bFGF in the absence of activin A), the “Pdx1 expression relative to activin A treatment alone for 5 days” value is given as “approximately 3500 fold”.

B1: Wnt-7a: Wnt ligand, Catalog #3008-WN-025, R&D Systems (protein, UniProt O00755 32-349, looked up)
Protein Wnt-7a: LGASIICNKIPGLAPRQRAICQSRPDAIIVIGEGSQMGLDECQFQFRNGRWNCSALGERTVFGKELKVGSREAAFTYAIIAAGVAHAITAACTQGNLSDCGCDKEKQGQYHRDEGWKWGGCSADIRYGIGFAKVFVDAREIKQNARTLMNLHNNEAGRKILEENMKLECKCHGVSGSCTTKTCWTTLPQFRELGYVLKDKYNEAVHVEPVRASRNKRPTFLKIKKPLSYRKPMDTDLVYIEKSPNYCEEDPVTGSVGTQGRACNKTAPQASGCDLMCCGRGYNTHQYARVWQCNCKFHWCCYVKCNTCSERTEMYTCK
Turning to B1, in test [6], the “expression of definitive endoderm markers (real-time PCR)” value (“expression … (real-time PCR)” below) is “minimal impact”.

B2: FGF-4: member of the fibroblast growth factor family (protein, UniProt P08620 31-206, looked up)
Fibroblast growth factor 4: APTAPNGTLEAELERRWESLVALSLARLPVAAQPKEAAVQSGAGDYLLGIKRLRRLYCNVGIGFHLQALPDGRIGGAHADTRDSLLELSPVERGVVSIFGVASRFFVAMSSKGKLYGSPFFTDECTFKEILLPNNYNAYESYKYPGMFIALSKNGKTKKGNRVSPTMKVTHFLPRL
B2: the “expression of α-fetoprotein (AFP) and albumin” value in test [7] is “further increased”.

B3: BMP-4: Catalog #314-BP-010, R&D Systems (protein, UniProt P12644 293-408, looked up)
Bone morphogenetic protein 4: SPKHHSQRARKKNKNCRRHSLYVDFSDVGWNDWIVAPPGYQAFYCHGDCPFPLADHLNSTNHAIVQTLVNSVNSSIPKACCVPTELSAISMLYLDEYDKVVLKNYQEMVVEGCGCR
In the case of B3, in test [3] (25 ng/ml BMP-4), the “effect of addition of BMP-4 to the DE protocol” value was “induce formation of mesoderm marker BRY”.

B4: Wnt-5a: Wnt ligand, Catalog #654-WN-010, R&D Systems (protein, UniProt P22725 62-380, looked up)
Protein Wnt-5a: IIGAQPLCSQLAGLSQGQKKLCHLYQDHMQYIGEGAKTGIKECQYQFRHRRWNCSTVDNTSVFGRVMQIGSRETAFTYAVSAAGVVNAMSRACREGELSTCGCSRAARPKDLPRDWLWGGCGDNIDYGYRFAKEFVDARERERIHAKGSYESARILMNLHNNEAGRRTVYNLADVACKCHGVSGSCSLKTCWLQLADFRKVGDALKEKYDSAAAMRLNSRGKLVQVNSRFNSPTTQDLVYIDPSPDYCVRNESTGSLGTQGRLCNKTSEGMDGCELMCCGRGYDQFKTVQTERCHCKFHWCCYVKCKKCTEIVDQFVCK
For B4, in test [6], the “expression … (real-time PCR)” value is reported as “minimal impact”.

B5: Wnt-5b: Wnt ligand, Catalog #3006-WN-025, R&D Systems (protein, UniProt P22726 18-359, looked up)
Protein Wnt-5b: QLLTDANSWWSLALNPVQRPEMFIIGAQPVCSQLPGLSPGQRKLCQLYQEHMSYIGEGAKTGIRECQHQFRQRRWNCSTVDNTSVFGRVMQIGSRETAFTYAVSAAGVVNAISRACREGELSTCGCSRAARPKDLPRDWLWGGCGDNVEYGYRFAKEFVDAREREKNFAKGSEEQGRALMNLQNNEAGRRAVYKMADVACKCHGVSGSCSLKTCWLQLAEFRKVGDRLKEKYDSAAAMRITRQGKLELANSRFNQPTPEDLVYVDPSPDYCLRNETTGSLGTQGRLCNKTSEGMDGCELMCCGRGYDRFKSVQVERCHCRFHWCCFVRCKKCTEVVDQYVCK
For B5, in test [6], the “expression … (real-time PCR)” value is reported as “minimal impact”.
